# In patent publication US20070202079A1, “Therapeutic compositions and methods useful in modulating protein tyrosine phosphatases” (priority 2006, published 2007):
# Key:
# SHP-1 = biological target: T1, SHP-1 (Mus musculus, UniProt P29351); assay: in vitro PTPase assay, GST/SHP-1; type: biochemical; conditions: for inhibitory activity against SHP-1: 3-4 μg/ml or 10-100 μg/ml
# T1 construct: made in house
# Experimental: In vitro PTPase activities were measured using the commercial protein tyrosine phosphatase assay kit (Upstate Biotechnology, Inc. (“UBI”)) following established procedure known to one of skill in the art. […] Briefly, 0.01 μg of GST/PTPase fusion proteins was incubated in 50 μl of Tris buffer (10 mM Tris, pH 7.4) containing different concentrations of inhibitors or chemicals (0-1,000 μg/ml) at 22° C. for 10 minutes, followed by addition of 0.2 mM of the phosphotyrosine peptide and incubation at 22° […] 100 μl of Malachite Green solution was added and incubated for 5 minutes, and the absorbance at 660 nm was measured after 5 minutes.
# To assess the reversibility of inhibition of SHP-1 by PTPase inhibitors, GST/SHP-1 fusion protein bound on glutathione beads were pre-incubated in cold Tris buffer or Tris buffer containing the PTPase inhibitors at 4° C. for 30 minutes. The beads were then either subjected to in vitro PTPase assays or washed 3 times in Tris buffer then subjected to in vitro PTPase assays.
# Briefly, individual PTPases (0.1 μg/reaction) in 50 μL of PTPase buffer (50 mM Tris, pH 7.4) were incubated at 22° C. for 10 minutes or as indicated in the absence or presence of inhibitory compounds. Substrates (0.2 mM phosphotyrosine peptide) were then added and allowed to react at 22° C. for 18 hrs. PTPase activity of individual reactions was measured by adding 100 μL of malachite green solution (UBI) and then quantifying the amounts of free phosphate cleaved by the PTPase from the peptide substrate by spectrometry (OD660 nm). […] Relative PTPase activities were calculated based on the formula: (PTPase activity in the presence of an inhibitory compound/PTPase activity in the absence of the compound)× 100%. To assess the reversibility of PTPase inhibition, GST fusion proteins of the PTPases bound on glutathione beads (Pharmacia) were pre-incubated with cold Tris buffer (50 mM Tris, pH 7.0) or Tris buffer containing the inhibitor at 4° C. for 30 minutes. The beads were then washed three times in cold Tris buffer or not washed prior to subjecting to in vitro PTPase assays.
# WM9 cells = assay: WM9 cell growth, MTT; type: cell-based, human
# Experimental: For cell proliferation assays, cells were grown in 10% FCS culture medium containing various amounts of IFNs and/or sodium stibogluconate in 96 well plates and cultured at 37° C. for 3 or 6 days as indicated. The numbers of viable cells in proliferation assays were determined by MTT assays as described in Phatak et al., J. Immunol. 167, 3391 (2001).
# Renca (Murphy, G. P., and W. J. Hrushesky. 1973. A murine renal cell carcinoma. J Natl Cancer Inst 50:1013), Jurkat (Gillis, S., and J. Watson. 1980. Biochemical and biological characterization of lymphocyte regulatory molecules. V. Identification of an interleukin 2-producing human leukemia T cell line. J Exp Med 152:1709) and WM9 (Forsberg, K., I. Valyi-Nagy, C. H. Heldin, M. Herlyn, and B. Westermark. 1993. Platelet-derived growth factor (PDGF) in oncogenesis: development of a vascular connective tissue stroma in xenotransplanted human melanoma producing PDGF-BB. Proc Natl Acad Sci USA 90:393) cell lines were obtained from a colleague at the Cleveland Clinic Foundation (CCF) and cultured in RPMI 1640 medium supplemented with 10% fetal calf serum (FCS). Recombinant IL-2 (Proleukin, 22 million IU/1.3 mg, Chiron, Emeryville, Calif.) was purchased from the CCF pharmacy. SSG has been described previously (Yi, T., M. K. Pathak, D. J. Lindner, M. E. Ketterer, C. Farver, and E. C. Borden. 2002. Anticancer activity of sodium stibogluconate in synergy with IFNs. J Immunol 169:5978).
# NIH3T3 (Yi, et al., Blood 85, 87 (1995)), WM9 (Forsberg, et al., Proc. Nat. Acad Sci. USA 90, 393 (1993)), DU145 (Mickey, et al., Cancer Res. 37, 4049 (1977)), LoVo (Drewinko, et al., Cancer Res. 36, 467 (1976)), HEY (Buick, et al., Cancer Res. 45, 3668 (1985)), U251 (Yoshida, et al., Cancer 50, 410 (1982)), A549 (Giard, et al., J. Natl. Cancer Inst. 51, 1417 (1973)) and SK-N-SH (Helson, et al., Cancer Res. 35, 2594 (1975)) cell lines have been described and were cultured in RPMI 1640 supplemented with 10% fetal calf serum (FCS). For measurement of sodium stibogluconate effects on cell growth in vitro, cells were cultured in the absence (−) or presence (+) of various amounts of sodium stibogluconate for 6 days with viable cells quantified by MTT assays (Mosmann, J. Immunol. Methods 65, 55 (1983)). Percentages of growth inhibition by sodium stibogluconate were calculated (.+−.x%).
# GSTm8 = assay: in vitro PTPase assay, GSTm8; type: biochemical; conditions: 3-4 μg/ml or 10-100 μg/ml
# From the text: In vitro PTPase assays were used to determine the effects of levamisole (Sigma), pentamidine (American Pharmaceutical Partners, Inc.), and ketoconazole (Sigma) on recombinant PTPases, following established procedures (Pathak et al., J. Immunol. 167, 3391 (2001); Pathak et al., Leukemia 16, 2285 (2002), Yi et al., J. Immunol. 169, 5978 (2002)) using a synthetic phosphotyrosine peptide or DiFMUP as the substrate as detailed above in section I.A.2.
# T1 sequence (P29351 whole entry): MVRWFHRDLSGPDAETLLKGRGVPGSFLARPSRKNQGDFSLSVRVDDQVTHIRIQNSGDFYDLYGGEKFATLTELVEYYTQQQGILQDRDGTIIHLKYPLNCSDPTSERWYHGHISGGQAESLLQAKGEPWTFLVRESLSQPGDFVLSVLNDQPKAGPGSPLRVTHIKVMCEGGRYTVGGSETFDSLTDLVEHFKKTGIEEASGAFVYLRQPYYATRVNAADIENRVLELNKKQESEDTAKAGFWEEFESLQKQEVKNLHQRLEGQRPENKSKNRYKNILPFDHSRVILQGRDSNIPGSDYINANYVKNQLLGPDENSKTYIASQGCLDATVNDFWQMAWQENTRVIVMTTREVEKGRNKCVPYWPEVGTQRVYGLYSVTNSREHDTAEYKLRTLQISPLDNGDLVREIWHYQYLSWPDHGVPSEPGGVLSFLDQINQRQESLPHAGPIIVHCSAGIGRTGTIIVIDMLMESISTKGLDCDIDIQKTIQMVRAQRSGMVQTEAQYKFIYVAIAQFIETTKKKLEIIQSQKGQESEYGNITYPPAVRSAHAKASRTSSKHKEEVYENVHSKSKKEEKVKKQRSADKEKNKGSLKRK
SMILES,inhibitory activity against SHP-1 (SHP-1),effect on IFN-alpha-induced growth inhibition of WM9 (WM9 cells; most obviously at 0.625-1.25 μg/ml),"growth inhibition of WM9 cells (WM9 cells; single agent, 2.5-5 μg/ml, 6 days)",inhibitory activity against GSTm8 (GSTm8),activity of parental mixture against recombinant SHP-1 (SHP-1; Sb concentration of 10 μg/ml),"inhibition of GST/SHP-1 after washing (reversibility) (SHP-1; pre-incubated 30 min at 4 °C, beads washed 3 times)","WM9 cells, single agent (WM9 cells; 50 μg/ml and 100 μg/ml, day 6 culture)","WM9 cell growth in culture (WM9 cells; SSG, 6 days, comparable conditions)","effect on IFN-alpha activity, WM9 (WM9 cells; 40 μg/ml)","activity against WM9 cells (WM9 cells; 0.625-20 μg/ml, single agent or with IFN-alpha)","inhibition at 40 µg/mL (WM9 cells; Homo sapiens, WM9, 144 h, single agent, 40 μg/ml, 6 days)"
N=C(N)c1ccc(OCCCCCOc2ccc(C(=N)N)cc2)cc1 [pentamidine],no obvious inhibitory activity,augmented IFN-alpha-induced growth inhibition,86-97%,no obvious inhibitory activity,,,,,,,
O.O.O.O.O.O.O.O.O.O=C([O-])[C@@H]1[O][Sb]2([O-])([O][Sb]34([OH])[O][C@H]([C@H](O)CO)[C@H]([O]3)[C@H](C(=O)[O-])[O]4)[O][C@H]([C@H](O)CO)[C@@H]1[O]2.[Na+].[Na+].[Na+] [sodium stibogluconate],,,,,inactivated SHP-1,not affected by washing,killed all cells,inhibited by SSG in a dose-dependent manner,,,
CC(=O)N1CCN(c2ccc(OCC3COC(Cn4ccnc4)(c4ccc(Cl)cc4Cl)O3)cc2)CC1 (stereo not shown) [ketoconazole],no obvious inhibitory activity,,,no obvious inhibitory activity,,,,,minor augmenting effect,no apparent activity,67%
